Assay: Compound was evaluated for the inhibitory constant against human Serine protease chymotrypsin

Cc1cc(OCCC=NNC(=N)N)cc(OS(=O)(=O)c2ccccc2OC(F)(F)F)c1 [3-[((3E)-3-{[(E)-amino(imino)methyl]hydrazono}propyl)oxy]-5-methylphenyl 2-(trifluoromethoxy)benzenesulfonate]
Ki: 88 µM
